The subject of the test is 252836-082-R-J2-PDC tumor spheroids, viability. Kind of test: Anticancer human tumor 252836-082-R-J2-PDC patient-derived head and neck squamous cell carcinoma cell line growth inhibition [PI3K]. Conditions: spheroids with HUVEC and MSC; for viability, T/C: stronger effect = lower value; for IC50: curve of compound. From the text:
Combinatorial screen of targeted agents with the PI3K inhibitors inavolisib, alpelisib, duvelisib, and copanlisib in multi-cell type tumor spheroids
A high-throughput screen of multi-cell type tumor spheroids was designed to identify active combinations of targeted small molecules and PI3K pathway inhibitors. Complex spheroids include a stromal component modeled by human endothelial cells (HUVEC) and fibroblasts modeled by human mesenchymal stem cells (MSCs). The concentration ranges selected for each drug and investigational agent were based upon clinically achievable concentrations if the clinical Cmax of the agent was known.
Compounds. The drugs and investigational agents: inavolisib (NSC800729), alpelisib (NSC765974), duvelisib (NSC772469), copanlisib (NSC816437), ipatasertib (NSC767898), afuresertib (NSC778305), talazoparib (NSC767125), sapanisertib (NSC764658), selumetinib (NSC741078), tovorafenib (DAY101, NSC766906), vemurafenib (NSC761431), ravoxertinib (NSC781343), sotorasib (NSC818433), MRTX1133 (NSC 836407), abemaciclib (NSC 768073), palbociclib (NSC758247), venetoclax (NSC 766270), SY5609 (NSC837396), enzalutamide (NSC755605), and darolutamide (NSC825331), were obtained from the National Cancer Institute (NCI) Developmental Therapeutics Program Chemical Repository. The FDA-approved anticancer drug set is available from the NCI Developmental Therapeutics Program. […] The stock solutions were prepared in dimethyl sulfoxide (DMSO, Sigma-Aldrich, St. Louis, MO, cat. D2650) at 800-fold the tested concentration and stored at -70 degrees C prior to their use. All drugs and investigational agents were tested over a range starting from a high concentration at or near the clinical Cmax and decreasing in half-log increments. If the clinical Cmax for an agent had not been determined, the highest concentration tested was 10 microM.
Cell Culture. All cells were maintained in an incubator at 37 degrees C and 5% CO2 with 95% humidity. The PDC lines were cultured according to standard operating procedures established by the NCI PDMR (https://pdmr.cancer.gov/sops/default.htm). All PDCs were thawed and cultured in Matrigel-coated flasks prepared with a working solution of 1X Ham's F-12 nutrient mix, without supplementation (Invitrogen, Waltham, MA, cat. 11765054), 100 U/mL penicillin-streptomycin (Invitrogen, cat. 15140122), and 2.5% Matrigel (Corning Inc., Corning, NY, cat. 354248) for the first three passages. The 354836-022-R-J1-PDC, 475296-252-R-J1-PDC, and 997726-040-R-J2-PDC lines were cultured in 6A media, which includes advanced DMEM/F-12 (Thermo Fisher Scientific, cat. 12634028), 10 mM HEPES (Thermo Fisher Scientific, cat. 15630080), 1X GlutaMAX supplement (Thermo Fisher Scientific, cat. 35050061), 0.1 mg/mL primocin (InvivoGen, San Diego, CA, cat. ant-pm-2), 10% defined fetal bovine serum, heat inactivated (HyClone Laboratories Inc., Logan, UT, cat. SH30070.03HI), 50% L-WRN conditioned media (ATCC, cat. CRL-3276), 1.25 mM N-Acetyl-L-cysteine (Sigma-Aldrich, cat. A9165), 10 mM nicotinamide (Sigma-Aldrich, cat. N0636), 1X B-27 supplement (Thermo Fisher Scientific, cat. 17504044), 1X N-2 supplement (Thermo Fisher Scientific, cat. 17502048), and 10 microM Y-27632 dihydrochloride (Tocris Bioscience, Bristol, United Kingdom, cat. 1254). The 624824-186-R-J2-PDC line was cultured in 6C/Colon 1B media, which includes all 6A media components plus 50 ng/mL human EGF recombinant protein (Thermo Fisher Scientific, cat. PHG0311). […]

Where only a bound is given, the exact number is not on record here.
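Further: spheroids exposed to agents for seven days before readout.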
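Wherever viability, T/C is given: percent of vehicle DMSO control viability so 100% = untreated growth.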

The viability, T/C is the result in the treated group divided by that in the control group, in per cent. A word on the IC50: it is the concentration needed to halve the response being measured. For the compound `C#Cc1c(F)ccc2cc(O)cc(-c3ncc4c(N5CC6CCC(C5)N6)nc(OCC56CCCN5CC(F)C6)nc4c3F)c12` (stereo unspecified), the IC50 is above 10 µM. Moreover, the viability, T/C (compound 0.0316 µM) is 89.5% [middle of 4 runs]. Also, under “compound 1 µM”, the viability, T/C is 87.9% [middle of 4 runs]. The viability, T/C (compound 3.16 µM) is 83.4% [middle of 4 runs]. Besides, the viability, T/C (compound 10 µM) was 67.8% [middle of 4 runs].
Regarding `C=CC(=O)N1CCN(c2nc(=O)n(-c3c(C)ccnc3C(C)C)c3nc(-c4c(O)cccc4F)c(F)cc23)C(C)C1` (stereo unspecified), the IC50 was above 10 µM. In addition, the viability, T/C (compound 0.0316 µM) is 98% [middle of 4 runs]. Moreover, the viability, T/C (compound 0.1 µM) is 95.6% [middle of 4 runs]. Also, the viability, T/C (compound 10 µM) was 99.2% [middle of 4 runs].
On to `CC1(C)CCC(Nc2ncc(C(F)(F)F)c(-c3c[nH]c4c(P(C)(C)=O)c(C#N)ccc34)n2)CN1` (stereo unspecified), for which the IC50 is below 0.0316 µM. Besides, the viability, T/C (compound 0.0316 µM) is 30.1% [middle of 4 runs]. For the same compound, where the note is “compound 0.1 µM”, the viability, T/C is 29.5% [middle of 4 runs]. The viability, T/C (compound 0.316 µM) is 35.8% [middle of 4 runs]. The viability, T/C (compound 1 µM) is 33% [middle of 4 runs]. In addition, the viability, T/C (compound 3.16 µM) is 32.1% [middle of 4 runs]. Where the note is “compound 10 µM”, the viability, T/C is 7.06% [middle of 4 runs].
`CNC(=O)c1ccc(N2C(=S)N(c3ccc(C#N)c(C(F)(F)F)c3)C(=O)C2(C)C)cc1F`: the IC50 was above 10 µM. Further, where the note is “compound 0.1 µM”, the viability, T/C was 92.5% [middle of 4 runs]. The viability, T/C (compound 0.316 µM) was 105% [middle of 4 runs]. Besides, the viability, T/C (compound 1 µM) is 96.4% [middle of 4 runs]. Also, under “compound 3.16 µM”, the viability, T/C was 94.9% [middle of 4 runs]. Further, the viability, T/C (compound 10 µM) was 94.5% [middle of 4 runs].
`Cn1ncc(Cl)c1-c1cc(C(=O)NC(CN)Cc2cccc(F)c2)sc1Cl` (stereo unspecified): the IC50 was 684 nM [middle of 4 runs]. Besides, the viability, T/C (compound 0.0316 µM) was 84.6% [middle of 4 runs]. Further, the viability, T/C (compound 0.1 µM) is 85% [middle of 4 runs]. In addition, for the setting “compound 0.316 µM”, the viability, T/C is 66.9% [middle of 4 runs]. Besides, the viability, T/C (compound 1 µM) is 42.4% [middle of 4 runs]. For the setting “compound 3.16 µM”, the viability, T/C is 30.8% [middle of 4 runs]. Further, the viability, T/C (compound 10 µM) was 12.7% [middle of 4 runs].
For `Cn1nccc1Nc1nccc(-c2ccn(C(CO)c3ccc(Cl)c(F)c3)c(=O)c2)n1` (stereo unspecified), the IC50 was above 10 µM. Also, the viability, T/C (compound 0.0316 µM) is 95.5% [middle of 4 runs]. In addition, the viability, T/C (compound 0.1 µM) was 100% [middle of 4 runs]. The viability, T/C (compound 0.316 µM) is 96.9% [middle of 4 runs]. For the same compound, the viability, T/C (compound 1 µM) is 96.5% [middle of 4 runs]. In addition, under “compound 3.16 µM”, the viability, T/C is 85.2% [middle of 4 runs]. In addition, for the setting “compound 10 µM”, the viability, T/C is 74.2% [middle of 4 runs].

These data come from PubChem BioAssay AID1963985 (Molecular Pharmacology Branch, DTP, NCI, 2024).
